Test results from US20040014209A1, “Compositions and methods for modulating cell differentiation” (priority 2002, published 2004).

Tested on: ventral marginal zone (VMZ) explants
Test: VMZ explant assay: mRNA injection, cardiac-specific gene expression and beating
Assay type: cell-based, Xenopus laevis
Experimental: In a modification of this assay (FIG. 6A), we targeted mRNAs encoding Wnt and BMP antagonists to VMZ tissue by microinjection into the equatorial region of both ventral blastomeres of four-cell stage embryos. VMZ explants were isolated at stage 10, cultured, and assayed at stage 30 by RT-PCR for cardiac-specific gene expression.
Embryos were fertilized in vitro, dejellied in 2% cysteine-HCl (pH 7.8), and maintained in 0.1×MMR. Explant dissections were performed in 0.75×MMR using an eyelash knife. Embryos were staged according to Nieuwkoop and Faber (1994).
Marginal zone explants were dissected at stage 10. Those explants to be examined by RT-PCR for expression of heart field marker- and heart muscle-specific genes were cultured until sibling embryos were stage 30. In situ hybridization was performed on explants cultured to the equivalent of stage 23 or stage 30. Explants to be scored for formation of beating hearts were maintained until the equivalent of stage 41.
mRNA was transcribed from pSP35-chd, pSP64-ngn, pCS2-DKK1, pCS2-Crescent, pCS2-GSK3, pCS2-WIF, pCS2-dnXwnt8, pCS2-szl, and pXT7-FrzA using the SP6 and T7 mMessage mMachine kits (Ambion). All cDNAs used encode Xenopus proteins except those for Wnt1 and crescent, which encode chick isoforms. The Xenopus form of crescent was identified while this manuscript was in preparation (Pfeffer et al. 1997; Pera and De Robertis 2000; Shibata et al. 2000) and functions identically to the chick isoform in our assays. Xenopus and chick Crescent share 88% amino acid positional identity within the cysteine-rich domain. Injections were performed in 3% Ficoll in 1×MMR. Embryos were injected equatorially into the two ventral or two dorsal blastomeres at the four-cell stage to target expression to the ventral or dorsal marginal zone. The amount of mRNA injected is given in the text. For plasmid cDNA injections, 75 pg of pCS2-Xwnt3A, pCS2-Xwnt5A, and pCSKA-Xwnt8 and 100 pg of pCS2-cWnt11 supercoiled plasmid constructs were injected.
RT-PCR was performed as described in Schneider and Mercola (1999). Twenty-five cycles were performed at an annealing temperature of 55° C., unless otherwise noted. Expression of EF1α was used as a positive control for the reverse transcriptase reaction. The following additional primers were used: XNkx2.5+, […] (SEQ ID NO: 7); XNkx2.5−, […] (SEQ ID NO: 8); M. actin+, […] (SEQ ID NO: 9); M. actin−, […] (SEQ ID NO: 10) (22 cycles); TnIc+, […] (SEQ ID NO: 11); TnIc−, […] (SEQ ID NO: 12); MHCα+, […] GTTCCG (SEQ ID NO: 13); MHCα−, […] (SEQ ID NO: 14); Tbx5+, […] (SEQ ID NO: 15); Tbx5−, […] (SEQ ID NO: 16) (27 cycles); XNkx2.10+, […] (SEQ ID NO: 17); and XNkx2.10−, […] (SEQ ID NO: 18) (59° C., 28 cycles).
A secreted version of the C-terminal fragment was made by fusing the secretory region of human Dkk1 to the C-terminal region cysteine rich region, as described above. This protein is referred to as “C1.” Briefly, the HindIII-Asp718 C-terminal fragment of human Dkk1 (SEQ ID NO: 1) was ligated to the sequence encoding the secretory signal of Dkk1 and cloned into a vector permitting in vitro transcription. As a control, full length Dkk1 was used. RNA was prepared in vitro from the vector as described above. The RNA encoded a polypeptide comprising amino acids 158-266 of SEQ ID NO: 2. The RNA was then injected into noncardiogenic frog embryonic mesoderm, as described above and in Schneider and Mercola (2001) Genes & Dev. 15:304.

dkk-1
Explants with rhythmic beating (900 pg dkk-1, 1.5 ng crescent or 1.5 ng frzb mRNA, scored at stage 41): 73.2% | Explants with induced cement glands (VMZ explants cultured to stage 41): 90.7% | mRNA dose inducing cardiac-specific gene expression (VMZ explants, RT-PCR at stage 30): ≥ 450 pg | Heart-specific gene expression (TnIc, MHCα) (mRNA injected ventrally at four-cell stage, VMZ explants, RT-PCR stage 30): strong expression of TnIc and MHCα
